Data taken from publication PMC5238392, “Origin of anti-tumor activity of the cysteine-containing GO peptides and further optimization of their cytotoxic properties” (Scientific Reports, 2017).

What was measured:
[1] = system: human breast carcinoma cell line ZR-75-1; assay: MTS cell viability assay, ZR-75-1
Experimental: As a next step, we used MTS assay[27] to examine the effect of GO peptides on the viability of the four described cell cultures as a function of different treatment schemes. […] This treatment regimen is labeled 4 × 5 underneath the graph. Alternatively, we introduced 5 μM of peptide daily while exchanging the medium (denoted 4/5). Unlike the previous protocol, it avoids potential build-up of the peptide in the medium.
The treatment protocols are: 4 × 5 – four daily doses of 5 μM delivered without exchanging the growth medium; 4/5 – four daily doses of 5 μM delivered with exchanged growth medium; 1 × 5, 1 × 10, 1 × 15, and 1 × 20 – a single dose of 5, 10, 15, or 20 μM, respectively. MTS reagent was added to the wells 96 h after the first (and sometimes the only) application of the peptide and the optical density at 492 nm was measured to determine the fraction of the surviving cells.
The data are according to the MTS assay, where the optical density was measured 96 h after the application of the peptide.
Cell survival was measured using CellTiter 96 AQueous One Solution Cell Proliferation Assay (MTS test, Promega, USA). Cells have been seeded in a 96-well flat-bottom plate in 100 μl of culture medium (10^3 cells/well for A549, HT-1080, dermal fibroblasts and eMSC or 5 × 10^3 cells/well for ZR-75-1) and allowed to attach for 24 h. The starting amount of cells was chosen to account for their growth rate and degree of spreading such as to avoid excessive dilution in the beginning of the experiment or control cell overgrowth toward the end. After 24 h, 10 μl of peptide stock solution or PBS (control) were added to the wells. After 96 h, 20 μl of the MTS-reagent were added to each well and 1–2 h later optical density was measured at the wavelength 492 nm using the 96-well plate reader (Titertek Multiskan, Labsystems, Finland). All experiments were conducted in duplicate or triplicate.

[2] = system: HT-1080 cells; assay: H2DCFDA intracellular ROS measurement, HT-1080; type: cell-based, human; conditions: 5 μM, 30 min after application
Experimental: Having established these premises, we repeated the measurements using the ROS-sensitive probe H2DCFDA instead of DCFDA. We have observed small, but statistically significant difference between the HT-1080 cells treated by GO-203 and control cells. Specifically, 30 min after application of the peptide the fluorescence signal from the treated cells was ca. 20% lower than the control, 82 ± 6 vs. 100 ± 7 (arbitrary units). The drop in fluorescence from cells that have been treated with GO-203 should be unequivocally attributed to the decreased level of ROS. The effect is small and unlikely to be the source of GO-203 cytotoxic activity. […] The detected drop in ROS level was below the level of statistical significance, 98 ± 3 vs. 100 ± 11 (see Fig. S3). […]
(§1) The cells were seeded into 35-mm Nunc culture dishes (Thermo Scientific, USA) at 1.2 × 10^5 cells per dish and allowed to attach for 24 h. […] After that GO-203 was added directly to the suspension and cell fluorescence was measured by flow cytometry at multiple time points during the following 2 hours. […] Cell fluorescence was then immediately measured by flow cytometry. […]
Cell fluorescence was measured using CytoFLEX (Beckman Coulter, USA) flow cytometer equipped with 3 lasers (405, 488 and 633 nm). […] Mean fluorescence intensity from 10,000 cells was acquired. […]

[3] = system: HT-1080 cells; assay: carboxy-H2DCFDA time-dependent intracellular ROS, HT-1080; type: cell-based, human; conditions: suspended HT-1080; 5 μM
Source text: In broad terms, apoptosis is classified into two fundamental modes: mitochondrial pathway and death receptor pathway. In the former mechanism, apoptotic signals lead to a loss of mitochondrial membrane potential, termination of mitochondrial ATP synthesis, overproduction of reactive oxygen species (ROS) and their release into cytosol along with a number of pro-apoptotic proteins that are normally confined to the intermembrane space of the mitochondria. To determine whether this mechanism is relevant for GO-203-induced cell death, we have analyzed the time variation of mitochondrial membrane potential and cellular level of ROS over the time interval of 2 h following the addition of the peptide. […] The fluorescence was measured concurrently with the side angle light scatter.
To confirm this finding we have also used the carboxy-H2DCFDA probe of the general oxidative stress. […] The results of the ROS assay in HT-1080, where the intensity of fluorescence signal reflects the level of intracellular oxidants, are shown in Fig. 6B. […]
as §1

[R]9CQCRRKN [GO-203, in clinical trials]
Cell viability (MTS) ([1]; 1 × 5: single dose of 5 μM, 96 h): essentially inconsequential | Cell viability (MTS) ([1]; 1 × 20: single dose of 20 μM, 96 h): substantially cytotoxic | Cell viability (MTS) ([1]; 4/5: four daily doses of 5 μM with exchanged growth medium, 96 h): inefficient | Cell viability (MTS) ([1]; 4 × 5: four daily doses of 5 μM without exchanging growth medium, OD 492 nm 96 h after first application): considerable damage | Decrease of H2DCFDA fluorescence signal versus control [2]: ca. 20% | H2DCFDA fluorescence signal (ROS level) ([2]; control 100 ± 7, mean and SD): 82 ± 6 arbitrary units | Time at which carboxy-H2DCFDA fluorescence (ROS) begins to diverge from control [3]: 80 to 90 min | Time at which elevated level of ROS is evident [3]: 120 min
